{"source": "patent US20250212873A1", "about": "“VOLATILE HDAC INHIBITORS FOR THERAPEUTIC AND PLANT APPLICATIONS” (The Regents of the University of California, priority 2022, published 2025)", "key": {"SH-SY5Y Cancer cell line": {"system": "SH-SY5Y Cancer cell line", "assay": "Cancer cell viability assay, SH-SY5Y", "format": "cell-based", "method": "Cells were maintained in a 37° C. incubator with 5% CO2 throughout the experiment. Compound stocks were dissolved in 10% DMSO, but final concentrations were made fresh in complete media as needed. 10% DMSO solvent was used as control in complete media. Cells were seeded onto 12-well plates and allowed 12-24 hours until treatment began to allow cells to adhere to wells. This was followed by minimum 5-day treatment of compounds, changing the media with treatment every 48 hours. Cell lines A549, PC3, and SK-MEL-5 were seeded at 8000 cells/well which would provide 80-100% confluency after 6-day growth. SH-SY5Y was seeded at 8000 cells/well then 16,000 cells/well due to slower growth and given at least 10 days for sufficient growth. After allotted growth times, cell counts were performed via Countess™ automated cell counter. All assays were completed with a minimum of triplicate replicates for all conditions and analyzed through GraphPad Prism One-way ANOVA for significance."}, "[1]": {"system": "A. thaliana plants (Col-0)", "assay": "Weed killing assay", "format": "in vivo, Arabidopsis thaliana", "conditions": "1% (volume/volume) in PO, 7 days vapor exposure, 4 weeks recovery", "excerpt": "Since large scale changes in gene expression occur it is presumed that higher doses of some of the compounds could negatively affect some plants, even causing death. Since Arabidopsis thaliana is also considered a type of weed and goes by the common name Thale cress, it was used as a model to test the weed killing potential at higher doses. In order to evaluate the activity of some of these volatiles in plant killing twenty-seven day old A. thaliana plants (Col-0), that had been transplanted at day 7 to soil, were placed in 10-gallon glass aquarium as chamber along with a petridish containing 2 ml of chemical dissolved in PO at 1% (volume/volume) or PO alone were placed at the other side of the container. Plants were exposed to odor vapors for 7 days and observed for death.\nTwenty-seven day old A. thaliana plants (Col-0), that had been transplanted at day 7 to soil, were placed in 10-gallon glass aquarium as chamber along with a petridish containing 2 ml of chemical dissolved in PO at 1% (volume/volume) or PO alone were placed at the other side of the container. Plants were exposed to odor vapors for 7 days and observed for death."}, "[2]": {"system": "A. thaliana plants (Col-0)", "assay": "Flowering assay", "format": "in vivo, Arabidopsis thaliana", "conditions": "vapors from 0.1% solution", "excerpt": "Dramatic effects of VOCs have been seen in the seedling stage. The effects on with flowering timing were observed, since the process involves numerous changes in gene expression and therefore potentially susceptible to HDAC inhibitory volatiles. Mutants in HDACs like HDA5 show delayed flowering due to upregulation of flowering repressor genes like FLC and MAF1 (M. Luo et al., Plant J 82, 925-936 (2015)). Conversely, mutants in HDA9lead to early flowering due to increased expression of FLOWERING LOCUS T (FT) and AGAMOUS-LIKE 19 (AGL19) (M. J. Kang, et al., New Phytol 206, 281-294 (2015)). We placed 3 weeks old A. thaliana plants in the glass chambers and exposed them to the vapors of two of the VOCs, diacetyl and α-angelica lactone volatilizing from 0.1% solutions in the glass chamber.\nTwenty-seven day old A. thaliana plants (Col-0), that had been transplanted at day 7 to soil, were placed in 10-gallon glass aquarium as chamber along with a petridish containing 2 ml of chemical dissolved in PO or PO alone were placed at the other side of the container. Plants were exposed to odors until all plants began to flower, with odor cartridges being replaced daily. Signs of flower buds opening were counted as plant flowering. One-way analysis of Variance (ANOVA) between groups was performed for plant exposure quantitative data using Graph Pad Prism 9."}}, "note": "Entries after “also recorded” stand apart in the source; their conditions may differ.", "data": [{"compound": "CC(=O)C(C)=O", "note": "[2,3-butanedione]", "values": [{"measurement": "inhibition of neuroblastoma (SH-SY5Y) cell line, summary", "setting": "SH-SY5Y Cancer cell line", "result": "has potential in inhibiting"}, {"measurement": "changes in proliferation, SH-SY5Y", "setting": "SH-SY5Y Cancer cell line; 33 micro-molar", "result": "significant inhibition of cell growth; also recorded: Significant changes in proliferations"}, {"measurement": "changes in proliferation, SH-SY5Y", "setting": "SH-SY5Y Cancer cell line; 100 micro-molar", "result": "significant inhibition of cell growth; also recorded: Significant changes in proliferations"}, {"measurement": "plants killed (dead)", "setting": "[1]", "result": "6 of 8"}, {"measurement": "delay in flowering", "setting": "[2]", "result": 11, "unit": "days"}]}]}
